# According to US10442796B2, “2,3,5-substituted thiophene compound as protein kinase inhibitor” (KOREA INSTITUTE OF SCIENCE AND TECHNOLOGY, priority 2016, dated 2019):
# Columns and labels:
# Test in all cases: Kinase inhibitory activity, full kinase panel
# Format in all cases: biochemical
# Details in all cases: single concentration of 1 μM, read-out: %Inhibitory ability
# AAK1 = AAK1 (Homo sapiens, UniProt Q2M2I8)
# Protocol: (§1) In order to measure inhibitory activity (% inhibitory ability) against a protein kinase with respect to the compound of the present invention, a biochemical assay was performed in a full kinase panel shown in the following Table 1. As an experimental compound, the (S)-5-((3-fluorophenyl)ethynyl)-N-(piperidin-3-yl)-3-ureidothiophene-2-carboxamide synthesized in Example 24 was used.
# AXL = AXL (Homo sapiens, UniProt P30530)
# Protocol: as §1
# CSF1R = CSF1R (Homo sapiens, UniProt P07333)
# Protocol: as §1
# DAPK2 = DAPK2 (Homo sapiens, UniProt Q9UIK4)
# Protocol: as §1
# DAPK3 = DAPK3 (Homo sapiens, UniProt O43293)
# Protocol: as §1
# DCAMKL1 = DCAMKL1 (Homo sapiens, UniProt O15075)
# Protocol: as §1
# DLK = DLK (Homo sapiens, UniProt Q12852)
# DLK, sequence (Q12852 whole entry): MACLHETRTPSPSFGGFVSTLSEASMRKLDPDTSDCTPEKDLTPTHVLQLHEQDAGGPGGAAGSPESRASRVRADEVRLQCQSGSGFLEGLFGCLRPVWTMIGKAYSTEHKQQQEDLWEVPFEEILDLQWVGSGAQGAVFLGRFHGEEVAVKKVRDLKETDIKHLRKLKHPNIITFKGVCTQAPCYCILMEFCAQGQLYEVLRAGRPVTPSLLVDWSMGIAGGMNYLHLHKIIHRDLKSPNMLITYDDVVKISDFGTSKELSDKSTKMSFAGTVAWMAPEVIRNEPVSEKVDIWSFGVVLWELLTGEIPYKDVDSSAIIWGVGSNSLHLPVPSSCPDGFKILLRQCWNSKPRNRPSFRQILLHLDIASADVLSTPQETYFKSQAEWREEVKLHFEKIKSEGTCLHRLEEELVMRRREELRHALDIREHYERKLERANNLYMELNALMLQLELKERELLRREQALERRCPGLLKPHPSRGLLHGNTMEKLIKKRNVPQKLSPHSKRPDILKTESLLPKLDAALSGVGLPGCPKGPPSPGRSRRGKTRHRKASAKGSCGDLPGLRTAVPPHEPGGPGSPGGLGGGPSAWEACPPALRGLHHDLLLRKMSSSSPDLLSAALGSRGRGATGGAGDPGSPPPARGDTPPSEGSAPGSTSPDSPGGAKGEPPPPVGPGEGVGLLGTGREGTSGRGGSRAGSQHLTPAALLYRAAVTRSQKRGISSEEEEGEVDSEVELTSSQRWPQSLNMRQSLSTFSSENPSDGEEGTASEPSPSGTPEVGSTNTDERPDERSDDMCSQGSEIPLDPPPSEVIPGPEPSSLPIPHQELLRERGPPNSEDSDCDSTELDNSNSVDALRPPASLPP
# Protocol: as §1
# DRAK1 = DRAK1 (Homo sapiens, UniProt Q9UEE5)
# Protocol: as §1
# EPHA3 = EPHA3 (Homo sapiens, UniProt P29320)
# Protocol: as §1
# HCK = HCK (Homo sapiens, UniProt P08631)
# Protocol: as §1
# JAK2 = JAK2 (Homo sapiens, UniProt O60674)
# Protocol: as §1
# JAK3 = JAK3 (Homo sapiens, UniProt P52333)
# Protocol: as §1
# KIT = KIT (Homo sapiens, UniProt P10721)
# KIT, sequence (P10721 26-976, species assumed): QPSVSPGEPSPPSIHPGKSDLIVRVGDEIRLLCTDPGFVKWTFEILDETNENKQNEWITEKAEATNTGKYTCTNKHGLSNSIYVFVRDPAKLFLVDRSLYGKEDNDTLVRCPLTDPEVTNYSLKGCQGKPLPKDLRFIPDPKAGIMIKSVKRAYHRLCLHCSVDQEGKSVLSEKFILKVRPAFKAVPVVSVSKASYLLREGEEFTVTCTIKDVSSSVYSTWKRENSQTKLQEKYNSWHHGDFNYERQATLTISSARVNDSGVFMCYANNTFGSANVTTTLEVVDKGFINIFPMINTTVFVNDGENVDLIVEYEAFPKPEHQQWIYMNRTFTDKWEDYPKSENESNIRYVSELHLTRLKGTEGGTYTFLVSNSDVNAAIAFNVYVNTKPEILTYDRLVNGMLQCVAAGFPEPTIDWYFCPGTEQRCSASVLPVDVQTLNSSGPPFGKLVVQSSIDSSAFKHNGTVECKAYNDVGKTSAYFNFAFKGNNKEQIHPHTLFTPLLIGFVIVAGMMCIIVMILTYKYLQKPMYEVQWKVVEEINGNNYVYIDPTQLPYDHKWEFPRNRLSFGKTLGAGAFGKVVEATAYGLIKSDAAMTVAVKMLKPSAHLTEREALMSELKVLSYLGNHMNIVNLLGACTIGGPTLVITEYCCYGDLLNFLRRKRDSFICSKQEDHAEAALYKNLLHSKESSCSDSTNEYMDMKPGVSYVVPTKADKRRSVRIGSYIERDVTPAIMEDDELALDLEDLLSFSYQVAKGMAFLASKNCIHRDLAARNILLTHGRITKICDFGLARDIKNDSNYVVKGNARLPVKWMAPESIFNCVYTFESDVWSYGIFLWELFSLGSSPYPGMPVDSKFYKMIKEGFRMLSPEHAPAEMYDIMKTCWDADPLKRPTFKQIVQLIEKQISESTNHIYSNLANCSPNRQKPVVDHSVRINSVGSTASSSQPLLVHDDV
# Protocol: as §1
# LRRK2 = LRRK2 (Homo sapiens, UniProt Q5S007)
# Protocol: as §1
# MAP3K3 = MAP3K3 (Homo sapiens, UniProt Q99759)
# Protocol: as §1
# MEK2 = MEK2 (Homo sapiens, UniProt P36507)
# Protocol: as §1
# MEK3 = MEK3 (Homo sapiens, UniProt P46734)
# Protocol: as §1
# MINK = MINK (Homo sapiens, UniProt Q8N4C8)
# Protocol: as §1
# MKNK2 = MKNK2 (Homo sapiens, UniProt Q9HBH9)
# MKNK2, sequence (Q9HBH9 whole entry): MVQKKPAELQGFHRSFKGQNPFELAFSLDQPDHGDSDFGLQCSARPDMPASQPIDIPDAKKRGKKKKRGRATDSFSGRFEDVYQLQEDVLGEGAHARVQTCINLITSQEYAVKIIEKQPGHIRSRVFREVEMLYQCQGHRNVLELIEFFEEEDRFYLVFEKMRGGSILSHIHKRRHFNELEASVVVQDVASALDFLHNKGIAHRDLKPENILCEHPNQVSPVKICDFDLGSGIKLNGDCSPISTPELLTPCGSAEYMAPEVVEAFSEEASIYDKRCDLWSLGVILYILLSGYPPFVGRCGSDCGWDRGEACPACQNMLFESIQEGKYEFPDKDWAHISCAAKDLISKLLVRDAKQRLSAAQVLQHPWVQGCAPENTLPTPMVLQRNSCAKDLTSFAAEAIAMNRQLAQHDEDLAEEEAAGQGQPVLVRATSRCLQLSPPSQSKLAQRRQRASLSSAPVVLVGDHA
# Protocol: as §1
# MLK3 = MLK3 (Homo sapiens, UniProt Q16584)
# MLK3, sequence (Q16584 whole entry): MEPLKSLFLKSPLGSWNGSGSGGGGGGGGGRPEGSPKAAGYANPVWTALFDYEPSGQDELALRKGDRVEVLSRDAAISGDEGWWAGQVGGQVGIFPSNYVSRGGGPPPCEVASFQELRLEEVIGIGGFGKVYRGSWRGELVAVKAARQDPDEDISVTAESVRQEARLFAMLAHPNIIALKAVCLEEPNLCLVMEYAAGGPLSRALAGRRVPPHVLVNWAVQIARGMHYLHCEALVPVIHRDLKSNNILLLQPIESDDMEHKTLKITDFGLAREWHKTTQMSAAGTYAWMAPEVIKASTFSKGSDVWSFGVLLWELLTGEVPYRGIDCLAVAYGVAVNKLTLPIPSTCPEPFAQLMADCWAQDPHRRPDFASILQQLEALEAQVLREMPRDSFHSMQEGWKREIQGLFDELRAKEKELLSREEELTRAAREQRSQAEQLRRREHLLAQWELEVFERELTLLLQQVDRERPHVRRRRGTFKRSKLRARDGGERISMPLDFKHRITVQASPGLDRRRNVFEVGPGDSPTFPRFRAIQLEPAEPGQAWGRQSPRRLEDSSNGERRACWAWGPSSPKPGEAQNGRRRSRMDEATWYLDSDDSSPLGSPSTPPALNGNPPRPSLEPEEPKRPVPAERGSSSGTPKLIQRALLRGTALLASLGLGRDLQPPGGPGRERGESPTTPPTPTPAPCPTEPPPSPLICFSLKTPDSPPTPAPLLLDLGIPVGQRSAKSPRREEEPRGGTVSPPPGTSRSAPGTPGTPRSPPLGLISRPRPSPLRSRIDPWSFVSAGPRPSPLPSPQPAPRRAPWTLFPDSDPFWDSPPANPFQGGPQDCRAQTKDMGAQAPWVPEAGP
# Protocol: as §1
# MST1 = MST1 (Homo sapiens, UniProt Q13043)
# Protocol: as §1
# MST2 = MST2 (Homo sapiens, UniProt Q13188)
# Protocol: as §1
# OSR1 = OSR1 (Homo sapiens, UniProt O95747)
# Protocol: as §1
# PAK4 = PAK4 (Homo sapiens, UniProt O96013)
# Protocol: as §1
# PAK6 = PAK6 (Homo sapiens, UniProt Q9NQU5)
# Protocol: as §1
# PDGFRA = PDGFRA (Homo sapiens, UniProt P16234)
# Protocol: as §1
# PDGFRB = PDGFRB (Homo sapiens, UniProt P09619)
# Protocol: as §1
# PIP5K2B = PIP5K2B (Homo sapiens, UniProt P78356)
# Protocol: as §1
# PLK4 = PLK4 (Homo sapiens, UniProt O00444)
# Protocol: as §1
# PRKX = PRKX (Homo sapiens, UniProt P51817)
# Protocol: as §1
# RET = RET (Homo sapiens, UniProt P07949)
# Protocol: as §1
# RIOK3 = RIOK3 (Homo sapiens, UniProt O14730)
# RIOK3, sequence (O14730 whole entry): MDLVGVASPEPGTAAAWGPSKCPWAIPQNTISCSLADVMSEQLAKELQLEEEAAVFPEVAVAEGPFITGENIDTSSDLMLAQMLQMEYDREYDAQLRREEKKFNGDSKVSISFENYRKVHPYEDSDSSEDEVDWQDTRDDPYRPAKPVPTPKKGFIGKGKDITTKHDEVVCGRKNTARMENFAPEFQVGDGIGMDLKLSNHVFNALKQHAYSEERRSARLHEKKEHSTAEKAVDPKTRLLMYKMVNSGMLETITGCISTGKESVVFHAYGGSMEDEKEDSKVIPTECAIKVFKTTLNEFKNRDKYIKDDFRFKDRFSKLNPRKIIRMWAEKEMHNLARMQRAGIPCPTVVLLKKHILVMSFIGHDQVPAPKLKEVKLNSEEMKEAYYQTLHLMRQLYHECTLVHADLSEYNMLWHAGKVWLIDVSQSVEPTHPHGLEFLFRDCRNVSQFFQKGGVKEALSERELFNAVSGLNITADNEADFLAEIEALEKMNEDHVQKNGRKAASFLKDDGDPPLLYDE
# Protocol: as §1
# SIK2 = SIK2 (Homo sapiens, UniProt Q9H0K1)
# Protocol: as §1
# SRC = SRC (Homo sapiens, UniProt P12931)
# SRC, sequence (P12931 whole entry, species assumed): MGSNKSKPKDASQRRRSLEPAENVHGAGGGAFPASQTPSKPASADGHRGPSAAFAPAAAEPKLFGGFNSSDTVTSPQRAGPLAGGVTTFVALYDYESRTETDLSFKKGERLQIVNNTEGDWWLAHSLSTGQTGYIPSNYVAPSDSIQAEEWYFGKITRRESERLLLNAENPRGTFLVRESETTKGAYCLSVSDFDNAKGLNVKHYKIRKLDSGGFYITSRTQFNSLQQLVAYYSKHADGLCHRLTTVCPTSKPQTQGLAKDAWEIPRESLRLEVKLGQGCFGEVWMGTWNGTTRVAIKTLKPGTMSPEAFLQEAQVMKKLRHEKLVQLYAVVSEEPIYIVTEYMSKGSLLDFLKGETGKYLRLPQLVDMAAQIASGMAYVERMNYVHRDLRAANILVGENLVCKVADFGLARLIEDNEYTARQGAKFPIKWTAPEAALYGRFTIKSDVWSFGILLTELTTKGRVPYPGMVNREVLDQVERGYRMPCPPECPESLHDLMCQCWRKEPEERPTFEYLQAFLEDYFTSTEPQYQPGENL
# Protocol: as §1
# SRPK1 = SRPK1 (Homo sapiens, UniProt Q96SB4)
# Protocol: as §1
# SYK = SYK (Homo sapiens, UniProt P43405)
# Protocol: as §1
# TRKA = TRKA (Homo sapiens, UniProt P04629)
# TRKA, sequence (P04629 33-796, species assumed): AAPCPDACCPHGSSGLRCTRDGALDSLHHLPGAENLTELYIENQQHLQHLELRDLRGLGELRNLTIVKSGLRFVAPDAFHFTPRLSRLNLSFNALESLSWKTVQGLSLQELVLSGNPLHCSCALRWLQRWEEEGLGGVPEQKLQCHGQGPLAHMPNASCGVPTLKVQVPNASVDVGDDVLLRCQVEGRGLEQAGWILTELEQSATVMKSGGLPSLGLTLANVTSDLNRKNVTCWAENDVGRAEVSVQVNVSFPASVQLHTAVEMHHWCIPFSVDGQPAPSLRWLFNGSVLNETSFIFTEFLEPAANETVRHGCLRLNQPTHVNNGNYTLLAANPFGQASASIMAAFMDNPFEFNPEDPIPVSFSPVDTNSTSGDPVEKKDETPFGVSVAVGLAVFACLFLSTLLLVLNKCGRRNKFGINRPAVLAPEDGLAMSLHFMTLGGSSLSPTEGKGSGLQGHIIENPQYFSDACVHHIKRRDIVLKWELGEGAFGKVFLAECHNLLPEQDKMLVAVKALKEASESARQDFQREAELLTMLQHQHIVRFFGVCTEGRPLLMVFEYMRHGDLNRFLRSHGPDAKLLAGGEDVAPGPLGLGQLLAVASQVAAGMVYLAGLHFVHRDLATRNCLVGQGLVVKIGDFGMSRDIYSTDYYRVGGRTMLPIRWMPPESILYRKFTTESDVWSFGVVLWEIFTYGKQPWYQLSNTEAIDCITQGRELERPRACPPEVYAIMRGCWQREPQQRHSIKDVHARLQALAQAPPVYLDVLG
# Protocol: as §1
# TSSK3 = TSSK3 (Homo sapiens, UniProt Q96PN8)
# Protocol: as §1
# TXK = TXK (Homo sapiens, UniProt P42681)
# Protocol: as §1
# ULK1 = ULK1 (Homo sapiens, UniProt O75385)
# Protocol: as §1
# ULK2 = ULK2 (Homo sapiens, UniProt Q8IYT8)
# Protocol: as §1
# ZAP70 = ZAP70 (Homo sapiens, UniProt P43403)
# Protocol: as §1
smiles,measurement,setting,value
"Cc1ccc(C#Cc2cc(NC(N)=O)c(C(=O)N[C@H]3CCCNC3)s2)cc1 [Example 24, (S)—N-(piperidin-3-yl)-5-(p-tolylethynyl)-3-ureidothiophene-2-carboxamide]",inhibition at 1 µM,AAK1,80%
same,inhibition at 1 µM,AXL,87%
same,inhibition at 1 µM,CSF1R,98.4%
same,inhibition at 1 µM,DAPK2,88%
same,inhibition at 1 µM,DAPK3,84%
same,inhibition at 1 µM,DCAMKL1,80%
same,inhibition at 1 µM,DLK,68%
same,inhibition at 1 µM,DRAK1,99.5%
same,inhibition at 1 µM,EPHA3,80%
same,inhibition at 1 µM,HCK,94.9%
same,inhibition at 1 µM,JAK2,83%
same,inhibition at 1 µM,JAK3,91.1%
same,inhibition at 1 µM,KIT,99.8%
same,inhibition at 1 µM,LRRK2,72%
same,inhibition at 1 µM,MAP3K3,94.6%
same,inhibition at 1 µM,MEK2,93.3%
same,inhibition at 1 µM,MEK3,83%
same,inhibition at 1 µM,MINK,97.1%
same,inhibition at 1 µM,MKNK2,92.7%
same,inhibition at 1 µM,MLK3,90.8%
same,inhibition at 1 µM,MST1,96.6%
same,inhibition at 1 µM,MST2,92.5%
same,inhibition at 1 µM,OSR1,68%
same,inhibition at 1 µM,PAK4,92.2%
same,inhibition at 1 µM,PAK6,90.3%
same,inhibition at 1 µM,PDGFRA,95.8%
same,inhibition at 1 µM,PDGFRB,99.9%
same,inhibition at 1 µM,PIP5K2B,74%
same,inhibition at 1 µM,PLK4,81%
same,inhibition at 1 µM,PRKX,73%
same,inhibition at 1 µM,RET,98.7%
same,inhibition at 1 µM,RIOK3,79%
same,inhibition at 1 µM,SIK2,73%
same,inhibition at 1 µM,SRC,98.1%
same,inhibition at 1 µM,SRPK1,83%
same,inhibition at 1 µM,SYK,91.5%
same,inhibition at 1 µM,TRKA,100%
same,inhibition at 1 µM,TSSK3,72%
same,inhibition at 1 µM,TXK,83%
same,inhibition at 1 µM,ULK1,99.8%
same,inhibition at 1 µM,ULK2,99.7%
same,inhibition at 1 µM,ZAP70,63%
